# Test results published in ChEMBL document CHEMBL1201862, “PubChem BioAssay data set” (2004).
# Calls of active or inactive are those of the source.
# Experiments:
# [1] = molecular target: T1, Alkaline phosphatase, tissue-nonspecific isozyme (Homo sapiens, UniProt P05186); assay: TNAP enzyme inhibition by screening hits, dose response, selectivity assay for mouse IAP inhibitor project, biochemical, human TNAP, uHTS hits (AID 488906); assay type: functional
# T1 sequence (P05186 whole entry): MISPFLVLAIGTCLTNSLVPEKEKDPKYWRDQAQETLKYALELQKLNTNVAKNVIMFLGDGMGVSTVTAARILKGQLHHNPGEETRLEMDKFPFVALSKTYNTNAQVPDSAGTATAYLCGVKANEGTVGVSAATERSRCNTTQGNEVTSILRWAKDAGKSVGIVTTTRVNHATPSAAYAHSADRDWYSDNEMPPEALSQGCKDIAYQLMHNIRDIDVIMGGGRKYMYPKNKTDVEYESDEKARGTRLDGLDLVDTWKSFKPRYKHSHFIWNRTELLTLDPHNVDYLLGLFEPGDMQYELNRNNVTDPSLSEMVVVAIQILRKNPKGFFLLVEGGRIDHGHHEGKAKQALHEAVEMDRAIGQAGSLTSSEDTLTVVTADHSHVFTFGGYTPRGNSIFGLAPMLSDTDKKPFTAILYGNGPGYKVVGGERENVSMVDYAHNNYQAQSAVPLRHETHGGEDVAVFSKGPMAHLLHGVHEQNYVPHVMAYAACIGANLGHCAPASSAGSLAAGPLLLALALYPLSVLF
# [2] = molecular target: T2, Ubiquitin-conjugating enzyme E2 N (Homo sapiens, UniProt P61088); assay type: functional
# T2 sequence (P61088 whole entry): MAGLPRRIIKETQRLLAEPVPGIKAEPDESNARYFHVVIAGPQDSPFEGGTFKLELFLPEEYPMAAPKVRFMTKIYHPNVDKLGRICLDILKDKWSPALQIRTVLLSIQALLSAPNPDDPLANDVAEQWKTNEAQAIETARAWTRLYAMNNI
# [3] = molecular target: T2, Ubiquitin-conjugating enzyme E2 N; assay type: functional; remark: listed apart in the source
# [4] = molecular target: T3, Insulin-degrading enzyme (Homo sapiens, UniProt P14735); assay: cellular IDE activation of Abeta substrate cleavage – fluorescence polarization, HEK cells, dose response (AID 588439); assay type: functional, cell-based
# T3 sequence (P14735 whole entry): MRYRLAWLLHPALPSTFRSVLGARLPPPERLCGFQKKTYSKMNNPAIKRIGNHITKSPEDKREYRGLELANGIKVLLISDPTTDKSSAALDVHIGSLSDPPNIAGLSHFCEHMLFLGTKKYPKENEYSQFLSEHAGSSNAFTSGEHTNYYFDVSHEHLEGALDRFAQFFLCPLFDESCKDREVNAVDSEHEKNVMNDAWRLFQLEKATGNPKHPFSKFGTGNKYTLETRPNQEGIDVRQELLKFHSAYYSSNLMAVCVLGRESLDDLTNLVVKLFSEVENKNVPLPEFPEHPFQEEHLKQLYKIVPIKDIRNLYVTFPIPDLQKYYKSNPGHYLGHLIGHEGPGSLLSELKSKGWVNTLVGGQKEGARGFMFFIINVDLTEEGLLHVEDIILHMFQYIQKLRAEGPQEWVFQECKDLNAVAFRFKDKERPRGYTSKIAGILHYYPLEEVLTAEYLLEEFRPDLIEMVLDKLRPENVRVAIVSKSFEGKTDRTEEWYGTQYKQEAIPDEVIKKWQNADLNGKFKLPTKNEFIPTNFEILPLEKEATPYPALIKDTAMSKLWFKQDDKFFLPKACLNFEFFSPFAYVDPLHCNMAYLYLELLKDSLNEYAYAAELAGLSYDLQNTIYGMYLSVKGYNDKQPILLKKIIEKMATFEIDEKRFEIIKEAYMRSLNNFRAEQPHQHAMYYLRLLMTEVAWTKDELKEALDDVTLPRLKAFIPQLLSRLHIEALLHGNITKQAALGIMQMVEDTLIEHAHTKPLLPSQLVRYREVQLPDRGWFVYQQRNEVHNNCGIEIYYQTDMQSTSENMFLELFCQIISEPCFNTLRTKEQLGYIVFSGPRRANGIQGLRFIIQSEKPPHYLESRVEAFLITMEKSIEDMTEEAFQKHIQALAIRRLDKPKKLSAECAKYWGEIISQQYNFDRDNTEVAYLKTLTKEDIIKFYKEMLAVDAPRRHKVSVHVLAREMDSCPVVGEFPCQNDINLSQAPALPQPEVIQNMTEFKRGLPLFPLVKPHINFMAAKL
# [5] = molecular target: Intestinal-type alkaline phosphatase (Mus musculus, UniProt P24822); assay: PubChem AID 488785; assay type: functional
# Sequence of Intestinal-type alkaline phosphatase (Mus musculus, UniProt P24822) (P24822 whole entry): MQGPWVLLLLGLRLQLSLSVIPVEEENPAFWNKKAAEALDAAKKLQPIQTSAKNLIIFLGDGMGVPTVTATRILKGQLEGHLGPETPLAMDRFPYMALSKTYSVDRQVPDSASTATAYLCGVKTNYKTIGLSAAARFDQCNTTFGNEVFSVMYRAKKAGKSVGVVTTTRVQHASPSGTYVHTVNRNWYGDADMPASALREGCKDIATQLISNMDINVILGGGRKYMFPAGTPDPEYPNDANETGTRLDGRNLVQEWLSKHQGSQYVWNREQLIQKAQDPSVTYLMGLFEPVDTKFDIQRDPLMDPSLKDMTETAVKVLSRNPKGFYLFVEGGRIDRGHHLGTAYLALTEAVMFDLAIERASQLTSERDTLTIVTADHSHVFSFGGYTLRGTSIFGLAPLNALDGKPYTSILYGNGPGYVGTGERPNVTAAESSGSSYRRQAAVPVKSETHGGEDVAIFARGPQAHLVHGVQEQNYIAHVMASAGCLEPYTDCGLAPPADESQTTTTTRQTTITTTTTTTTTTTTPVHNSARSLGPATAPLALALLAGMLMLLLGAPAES
# [6] = molecular target: T3, Insulin-degrading enzyme; assay: recombinant IDE activation, cell-free – biochemical, fluorescence polarization, counter-screen for IDE activator project, dose response (AID 588681)
# [7] = molecular target: Intestinal-type alkaline phosphatase (Homo sapiens, UniProt P09923); assay: inhibition of human intestinal alkaline phosphatase – biochemical, dose response (AID 488876); assay type: functional
# Sequence of Intestinal-type alkaline phosphatase (Homo sapiens, UniProt P09923) (P09923 whole entry): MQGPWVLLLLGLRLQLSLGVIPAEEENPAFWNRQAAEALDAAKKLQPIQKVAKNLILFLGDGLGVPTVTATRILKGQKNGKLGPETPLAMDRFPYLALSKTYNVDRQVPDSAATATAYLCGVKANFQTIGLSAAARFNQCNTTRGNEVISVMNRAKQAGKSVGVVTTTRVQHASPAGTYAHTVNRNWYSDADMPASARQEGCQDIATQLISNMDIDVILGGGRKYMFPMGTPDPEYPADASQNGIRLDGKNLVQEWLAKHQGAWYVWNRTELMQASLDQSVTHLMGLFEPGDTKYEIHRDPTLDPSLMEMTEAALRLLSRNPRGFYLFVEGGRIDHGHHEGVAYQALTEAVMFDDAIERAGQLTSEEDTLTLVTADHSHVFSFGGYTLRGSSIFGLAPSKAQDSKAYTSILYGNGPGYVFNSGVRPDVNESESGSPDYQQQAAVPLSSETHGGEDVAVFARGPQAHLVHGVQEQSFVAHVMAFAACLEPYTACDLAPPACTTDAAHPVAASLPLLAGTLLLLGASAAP
# [8] = viability of uninfected HEp-2 cells – cell-based, HTS, cytotoxicity control for RSV inhibitor project, dose response (AID 2410); assay type: functional; details: human respiratory syncytial virus
# [9] = test system: HEK293; assay: optical interference in Abeta FP readout, dose response, artefact control for IDE activator project, biochemical, fluorescence polarization (AID 588442); assay type: functional, cell-based; details: Homo sapiens
# [10] = test system: HEK293; assay: membrane integrity loss in HEK cells – cell-based, fluorescence, cytotoxicity control for IDE activator project, dose response (AID 588440); assay type: functional, Homo sapiens; details: Homo sapiens, HEK293;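 note: cytotoxicity by LDH release measuring loss of membrane integrity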
# [11] = molecular target: T4, Bcl-2-related protein A1 (Mus musculus, UniProt Q07440); assay type: functional;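 note: confirmatory dose–response counterscreen on Bfl-1, used to check hits from a UBC13 polyubiquitin inhibitor campaign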
# T4 sequence (Q07440 whole entry): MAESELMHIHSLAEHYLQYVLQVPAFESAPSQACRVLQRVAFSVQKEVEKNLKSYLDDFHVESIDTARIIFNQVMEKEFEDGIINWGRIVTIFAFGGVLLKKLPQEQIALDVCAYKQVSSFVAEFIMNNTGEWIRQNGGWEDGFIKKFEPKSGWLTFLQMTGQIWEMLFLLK
# [12] = molecular target: T5, Type-1 angiotensin II receptor (Homo sapiens, UniProt P30556); assay: antagonism of angiotensin II type 1 receptor – cell-based, uHTS hits, selectivity assay for APJ receptor antagonist project, dose response (AID 463214); assay type: functional;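 note: antagonist potency against angiotensin II stimulated AT1 response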
# T5 sequence (P30556 whole entry): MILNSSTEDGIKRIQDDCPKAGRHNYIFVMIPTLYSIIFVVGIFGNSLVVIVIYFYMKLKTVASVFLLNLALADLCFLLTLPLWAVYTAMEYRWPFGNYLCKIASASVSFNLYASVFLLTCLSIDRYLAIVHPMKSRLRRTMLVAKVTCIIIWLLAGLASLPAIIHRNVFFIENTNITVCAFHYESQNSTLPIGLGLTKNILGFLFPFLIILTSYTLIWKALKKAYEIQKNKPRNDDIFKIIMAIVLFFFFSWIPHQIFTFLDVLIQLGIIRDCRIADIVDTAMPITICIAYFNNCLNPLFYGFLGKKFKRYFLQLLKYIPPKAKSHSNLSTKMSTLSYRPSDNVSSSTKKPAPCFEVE
# [13] = molecular target: T6, Long-chain-fatty-acid--AMP ligase FadD28 (Mycobacterium tuberculosis, UniProt P9WQ59); assay: Fluorescence polarization aasay to screen for inhibitors that compete for the binding of FadD28 to a bisubstrate Measured in Biochemical System Using Plate Reader - 2147-01_Inhibitor_Dose_CherryPick_Activity.; assay type: functional, Mycobacterium tuberculosis H37Rv
# T6 sequence (P9WQ59 whole entry): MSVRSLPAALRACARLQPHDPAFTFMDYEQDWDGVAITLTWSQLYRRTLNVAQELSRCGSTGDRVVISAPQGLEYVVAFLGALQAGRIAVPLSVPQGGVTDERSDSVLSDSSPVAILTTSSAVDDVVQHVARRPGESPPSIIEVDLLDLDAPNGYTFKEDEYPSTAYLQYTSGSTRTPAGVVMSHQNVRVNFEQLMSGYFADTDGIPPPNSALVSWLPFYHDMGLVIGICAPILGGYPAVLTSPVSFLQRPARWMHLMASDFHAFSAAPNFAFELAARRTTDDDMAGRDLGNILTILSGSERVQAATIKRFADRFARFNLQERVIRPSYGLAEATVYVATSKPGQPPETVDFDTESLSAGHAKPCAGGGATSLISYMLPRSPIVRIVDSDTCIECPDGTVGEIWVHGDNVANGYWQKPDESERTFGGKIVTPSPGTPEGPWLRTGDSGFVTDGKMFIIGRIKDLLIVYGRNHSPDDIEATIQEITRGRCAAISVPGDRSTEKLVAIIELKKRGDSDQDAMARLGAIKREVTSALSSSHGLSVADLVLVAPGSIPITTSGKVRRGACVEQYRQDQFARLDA
# [14] = molecular target: Beta-galactosidase (Escherichia coli, UniProt Q8VNN2); assay: PubChem AID 485352; assay type: functional
# Sequence of Beta-galactosidase (Q8VNN2 whole entry): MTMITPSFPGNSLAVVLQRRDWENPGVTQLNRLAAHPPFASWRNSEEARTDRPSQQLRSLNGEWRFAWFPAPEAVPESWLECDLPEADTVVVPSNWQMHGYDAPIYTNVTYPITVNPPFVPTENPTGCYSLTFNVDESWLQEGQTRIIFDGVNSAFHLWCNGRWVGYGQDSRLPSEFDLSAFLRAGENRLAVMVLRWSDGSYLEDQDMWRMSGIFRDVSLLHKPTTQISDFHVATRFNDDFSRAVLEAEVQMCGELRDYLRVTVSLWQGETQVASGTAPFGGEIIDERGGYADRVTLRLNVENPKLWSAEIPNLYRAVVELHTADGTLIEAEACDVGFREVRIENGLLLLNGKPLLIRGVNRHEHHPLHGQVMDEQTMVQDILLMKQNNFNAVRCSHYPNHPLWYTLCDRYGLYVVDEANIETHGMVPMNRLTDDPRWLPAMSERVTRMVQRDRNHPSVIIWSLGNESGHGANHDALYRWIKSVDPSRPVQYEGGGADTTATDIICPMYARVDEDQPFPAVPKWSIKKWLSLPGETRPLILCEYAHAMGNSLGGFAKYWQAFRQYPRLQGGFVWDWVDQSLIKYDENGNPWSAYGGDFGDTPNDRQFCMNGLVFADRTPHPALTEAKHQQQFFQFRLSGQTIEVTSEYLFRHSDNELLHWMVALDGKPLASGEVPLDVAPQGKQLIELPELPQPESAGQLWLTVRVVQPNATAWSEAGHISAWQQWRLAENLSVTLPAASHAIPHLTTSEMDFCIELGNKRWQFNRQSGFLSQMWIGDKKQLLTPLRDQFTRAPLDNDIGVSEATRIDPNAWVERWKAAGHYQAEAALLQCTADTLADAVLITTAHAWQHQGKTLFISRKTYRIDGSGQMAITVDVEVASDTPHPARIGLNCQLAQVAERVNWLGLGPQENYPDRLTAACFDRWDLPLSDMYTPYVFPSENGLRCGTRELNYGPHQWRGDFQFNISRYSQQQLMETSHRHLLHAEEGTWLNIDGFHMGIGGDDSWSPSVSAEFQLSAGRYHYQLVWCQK
# [15] = molecular target: T7, Adenosylmethionine-8-amino-7-oxononanoate aminotransferase (Mycobacterium tuberculosis, UniProt P9WQ81); assay: Mycobacterium tuberculosis BioA enzyme inhibitor Measured in Biochemical System Using Plate Reader - 2163-02_Inhibitor_Dose_CherryPick_Activity.; assay type: functional, Mycobacterium tuberculosis UT205
# T7 sequence (P9WQ81 whole entry): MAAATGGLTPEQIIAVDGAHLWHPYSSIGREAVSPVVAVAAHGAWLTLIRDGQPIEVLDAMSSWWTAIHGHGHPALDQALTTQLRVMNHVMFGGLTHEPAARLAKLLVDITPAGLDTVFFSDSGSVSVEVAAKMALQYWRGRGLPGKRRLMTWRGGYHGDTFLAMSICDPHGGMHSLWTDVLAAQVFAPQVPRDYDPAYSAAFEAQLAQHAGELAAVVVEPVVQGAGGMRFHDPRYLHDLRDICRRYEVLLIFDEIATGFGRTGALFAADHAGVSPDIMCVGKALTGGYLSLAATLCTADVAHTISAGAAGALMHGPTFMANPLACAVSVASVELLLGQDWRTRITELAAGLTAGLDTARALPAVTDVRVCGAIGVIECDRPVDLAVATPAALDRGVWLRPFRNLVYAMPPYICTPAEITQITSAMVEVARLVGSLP
# [16] = molecular target: Steroidogenic factor 1 (Homo sapiens, UniProt Q13285); assay: Counterscreen for inverse agonists of the liver receptor homolog-1 (LRH-1; NR5A2): Luminescence-based cell-based high throughput dose response assay to identify inverse agonists of the Steroidogenic Factor 1 Nuclear Receptor (SF1; NR5A1).; assay type: functional
# Sequence of Steroidogenic factor 1 (Q13285 whole entry): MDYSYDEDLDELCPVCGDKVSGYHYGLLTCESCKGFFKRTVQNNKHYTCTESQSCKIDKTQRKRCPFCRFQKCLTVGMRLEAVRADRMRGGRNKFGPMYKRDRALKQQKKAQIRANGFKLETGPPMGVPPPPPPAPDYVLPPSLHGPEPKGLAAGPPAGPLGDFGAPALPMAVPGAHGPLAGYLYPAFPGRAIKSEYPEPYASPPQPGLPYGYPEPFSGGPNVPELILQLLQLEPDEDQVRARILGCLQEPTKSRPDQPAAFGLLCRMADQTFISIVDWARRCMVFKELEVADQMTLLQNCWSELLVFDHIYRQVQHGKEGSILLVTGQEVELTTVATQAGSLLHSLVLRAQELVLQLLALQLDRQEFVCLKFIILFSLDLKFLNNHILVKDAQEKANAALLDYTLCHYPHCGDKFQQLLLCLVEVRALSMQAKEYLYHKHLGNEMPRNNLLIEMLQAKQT
# [17] = molecular target: Nuclear receptor subfamily 5 group A member 2 (Homo sapiens, UniProt O00482); assay type: functional, cell-based;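 note: HEK293T cells transfected with LRH-1 and a StAR promoter luciferase reporter; potency for inhibitors that lower LRH-1 driven reporter light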
# Sequence of Nuclear receptor subfamily 5 group A member 2 (O00482 whole entry): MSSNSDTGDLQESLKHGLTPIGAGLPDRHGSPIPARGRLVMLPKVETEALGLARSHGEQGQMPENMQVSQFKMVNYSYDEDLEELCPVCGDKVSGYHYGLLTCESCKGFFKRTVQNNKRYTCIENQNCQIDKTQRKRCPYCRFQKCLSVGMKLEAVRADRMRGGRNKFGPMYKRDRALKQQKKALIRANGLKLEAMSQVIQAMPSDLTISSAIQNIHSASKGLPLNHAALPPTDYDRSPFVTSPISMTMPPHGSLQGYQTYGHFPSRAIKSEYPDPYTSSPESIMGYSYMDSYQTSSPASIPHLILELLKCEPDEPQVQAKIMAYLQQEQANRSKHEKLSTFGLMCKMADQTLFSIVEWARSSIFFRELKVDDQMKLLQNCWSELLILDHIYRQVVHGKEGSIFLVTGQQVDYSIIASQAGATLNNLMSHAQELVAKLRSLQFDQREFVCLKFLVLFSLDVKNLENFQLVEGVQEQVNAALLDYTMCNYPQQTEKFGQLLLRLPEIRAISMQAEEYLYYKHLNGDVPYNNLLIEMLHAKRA
# [18] = test system: P388; assay: cells; assay type: functional; details: Mus musculus
# [19] = test system: P388/ADR; assay: cells; assay type: functional; details: Mus musculus
# [20] = test system: SN12K1; assay: cells; assay type: functional; details: Homo sapiens
# [21] = Fluorescence-based cell-based high throughput dose response assay for inhibitors of the interaction of nucleotide-binding oligomerization domain containing 2 (NOD2) and the receptor-interacting serine-threonine kinase 2 (RIPK2).; assay type: functional; details: Homo sapiens
smiles,measurement,setting,value
C#CCOCCOCCOCCNc1nc(N2CCN(C(=O)CCCCCCCCCCNC(=O)[C@@H](CCSC)n3cc(CCO)nn3)CC2)nc(N2CCN(C(=O)CCCCCCCCCCNC(=O)[C@H]([C@@H](C)CC)n3cc(CCCCN=C(N)N)nn3)CC2)n1,IC50,[1],58.7 µM (active)
same,IC50,[2],5.82 µM (active)
same,IC50,[3],3.81 µM (active)
same,EC50,[4],> 2.03 µM (active)
same,IC50,[5],1.66 µM (active)
same,EC50,[6],2.36 µM (active)
same,IC50,[7],> 100 µM (inactive)
same,CC50,[8],16 µM (active)
same,EC50,[9],> 56 µM (inactive)
same,IC50,[10],4.44 µM (active)
same,IC50,[11],5.51 µM (active)
O=C(NNC(=S)Nc1ccc(Cl)cc1Cl)c1ccc(N2CCOCC2)c([N+](=O)[O-])c1,IC50,[12],> 40 µM (not active)
same,AC50,[13],40.2 µM (active)
same,EC50,[14],> 40 µM (inactive)
COc1ccc(CCN(C)c2ccc(C(N)=O)cc2[N+](=O)[O-])cc1OC,AC50,[15],5.7 µM (active)
COc1cccc(-c2ccc3c(c2)[C@H]2[C@H](CCN2C(=O)C2CCC2)[C@@H](CO)N3)c1,AC50,[15],7.13 µM (active)
COc1ccc(NC(=O)c2cnc(C)cn2)cc1-n1cnnn1,AC50,[15],0.733 µM (active)
COC(=O)c1ccc(NC(S)=NC2c3ccccc3CC2O)cc1 (configuration not stated),AC50,[13],26.6 µM (active)
C#CCOCCOCCOCCNc1nc(N2CCN(C(=O)CCCCCCCCCCNC(=O)[C@H](CCCCN)n3cc(C)nn3)CC2)nc(N2CCN(C(=O)CCCCCCCCCCNC(=O)[C@@H]([C@H](C)O)n3cc(C)nn3)CC2)n1,IC50,[2],11.1 µM (active)
same,IC50,[3],6.61 µM (active)
same,EC50,[4],> 54.7 µM (inactive)
same,EC50,[6],> 54.7 µM (inactive)
same,EC50,[9],> 54.7 µM (inactive)
same,IC50,[10],11.4 µM (inactive)
same,IC50,[11],> 20 µM (inactive)
COc1ccc(NC(=O)COC(=O)c2cc(S(=O)(=O)N3CCCC3)ccc2O)cc1,IC50,[16],11.2 µM (inactive)
same,IC50,[17],35.9 µM (inactive)
CC(=O)OC1C(O)C(C)OC(OC2C(OC(=O)C3CCC4C(C3)OC3(CC(OC(=O)/C=C/c5ccccc5)C(C)CO3)C43CO3)OC(C)C(O)C2OC(C)=O)C1O (configuration not stated),GI50,[18],0.0895 µM (active)
same,GI50,[19],> 1.75 µM (inactive)
same,GI50,[20],0.0172 µM (active)
same,IC50,[21],49.8 µM (inactive)
Cc1ccc(NC(=O)CSCC(=O)Nc2sccc2C#N)cc1,AC50,[13],18.9 µM (active)
